Earlier results in paper PMC6309200 (Journal of Controlled Release, 2018).
Where a SMILES comes first, the peptide text is derived from it.

Tested on: PA-specific CD8+ T cells
Conditions: shown previously; ref [15]

**Q.** Which “Immunogenicity without attached competent epitopes” value does the source give for `CC(=O)N[C@@H](CCC(N)=O)C(=O)N[C@@H](CCC(N)=O)C(=O)N[C@@H](CCCCN)C(=O)N[C@@H](Cc1ccccc1)C(=O)N[C@@H](CCC(N)=O)C(=O)N[C@@H](Cc1ccccc1)C(=O)N[C@@H](CCC(N)=O)C(=O)N[C@@H](Cc1ccccc1)C(=O)N[C@@H](CCC(=O)O)C(=O)N[C@@H](CCC(N)=O)C(=O)N[C@@H](CCC(N)=O)C(N)=O` [Q11] (Ac-QQKFQFQFEQQ-NH2) here?
**A.** non-immunogenic
